Laboratory results reported in US7301033B2, “PPAR-activating compound” (Kowa Co., Ltd., priority 2005, dated 2007).

Experiments:
Type in all cases: cell-based
human PPARγ2 = biological target: T1, human PPARγ2 (Homo sapiens, UniProt P37231); experiment: Gal4-human PPARγ2 chimera luciferase transfection assay in COS cells; details: compound added at 1 μM, luciferase activity with rosiglitazone 1 μM given as 10.0, 16 hours
T1 construct: with 182nd to 505th amino acids of human PPARγ2; expressed in transfected cells; host or cells: COS cells (African green monkey kidney)
T1 sequence (P37231 182-505): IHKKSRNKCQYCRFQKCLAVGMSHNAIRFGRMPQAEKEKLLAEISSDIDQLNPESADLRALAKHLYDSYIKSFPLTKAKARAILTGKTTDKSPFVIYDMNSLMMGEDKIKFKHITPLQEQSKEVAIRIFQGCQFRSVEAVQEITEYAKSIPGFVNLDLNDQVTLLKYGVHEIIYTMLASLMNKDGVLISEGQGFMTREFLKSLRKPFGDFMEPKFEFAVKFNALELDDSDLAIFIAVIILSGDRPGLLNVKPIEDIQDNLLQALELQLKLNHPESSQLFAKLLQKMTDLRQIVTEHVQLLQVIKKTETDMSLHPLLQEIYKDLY
Description: (§1) The PPAR receptor-activating effect of the compound of the present invention represented by the formula (1) was measured by a method described below (Proc. Natl. Acad. Sci., 92, pp 7297-7301, 1995; Journal of Lipid Research, 40, pp 2099-2110, 1999; and Proc. Natl. Acad. Sci, 98, pp 5306-5311, 2001).
(§2) All the transfection assays were conducted using African green monkey kidney-derived cell line COS cells. The COS cells were cultured at 5% CO2 concentration using a DMEM medium containing 10% fetal bovine serum, glutamic acid, and an antibiotic as a culture solution.
(§3) Gal4-human PPARs chimeric constructs which were fused the DNA-binding region of yeast transcription factor Gal4 with the ligand-binding region of human PPARs were used as an expression vector. A chimera where 1st to 147th amino acids of the Gal4 transcription factor were fused with 166th to 467th amino acids of human PPARα, with 182nd to 505th amino acids of human PPARγ2, or with 137th to 441st amino acids of human PPARδ was used as the chimera for each isoform. A reporter vector used was firefly luciferase whose promoter region contains five Gal4 recognition sequences. The plasmids were transfected into the cells by a method using Lipofectamine. In addition, a β-galactosidase expression vector was used as an internal standard.
(§4) After the transfection into the cells, the medium was substituted with a DMEM medium (containing 0.2% serum) supplemented with the compound, in which the cells were then cultured for additional 16 hours. Thereafter, luciferase activity and β-galactosidase activity in the cell lysate were measured.
(§5) In the present experiment, dimethyl sulfoxide (DMSO) was used in the dissolution and dilution of the compound. When the cells were treated, the DMSO concentration in the DMEM medium (containing 0.2% serum) was adjusted to 0.1%.

human PPARδ = biological target: T2, human PPARδ (Homo sapiens, UniProt Q03181); experiment: Gal4-human PPARδ chimera luciferase transfection assay in COS cells; details: compound added at 1 μM, luciferase activity with GW501516 1 μM given as 10.0, 16 hours
T2 construct: with 137th to 441st amino acids of human PPARδ; expressed in transfected cells; host or cells: COS cells (African green monkey kidney)
T2 sequence (Q03181 137-441): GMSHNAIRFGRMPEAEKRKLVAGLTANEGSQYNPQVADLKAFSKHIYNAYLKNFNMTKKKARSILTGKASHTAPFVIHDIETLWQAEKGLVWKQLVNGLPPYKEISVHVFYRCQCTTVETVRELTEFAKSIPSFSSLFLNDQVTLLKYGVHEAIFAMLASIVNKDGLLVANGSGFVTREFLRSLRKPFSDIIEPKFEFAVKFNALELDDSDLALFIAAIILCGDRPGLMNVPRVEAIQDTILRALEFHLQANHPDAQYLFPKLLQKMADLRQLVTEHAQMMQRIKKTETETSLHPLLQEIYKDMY
Description: as §1, §2, §3, §4, §5

human PPARα = biological target: T3, human PPARα (Homo sapiens, UniProt Q07869); experiment: Gal4-human PPARα chimera luciferase transfection assay in COS cells
T3 construct: 166th to 467th amino acids of human PPARα; expressed in transfected cells; host or cells: COS cells (African green monkey kidney)
T3 sequence (Q07869 166-467): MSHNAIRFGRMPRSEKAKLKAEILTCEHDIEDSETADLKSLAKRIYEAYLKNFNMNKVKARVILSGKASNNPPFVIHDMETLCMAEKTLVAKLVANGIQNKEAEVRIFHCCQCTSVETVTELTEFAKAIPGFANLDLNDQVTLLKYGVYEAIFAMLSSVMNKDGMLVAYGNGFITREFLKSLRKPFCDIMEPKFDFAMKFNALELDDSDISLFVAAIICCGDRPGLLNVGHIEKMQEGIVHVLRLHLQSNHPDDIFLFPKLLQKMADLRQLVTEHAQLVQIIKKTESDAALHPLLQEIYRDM
Description: as §1, §2, §3, §4, §5

[1] = compound added at 1 μM, luciferase activity with WY14643 10 μM given as 10.0, 16 hours

SMILES	hPPAR; Relative activity γ (human PPARγ2)	hPPAR; Relative activity δ (human PPARδ)	hPPAR; Relative activity α (human PPARα; [1])	hPPAR; Relative activity α (human PPARα; positive compound at 10 μM, its luciferase activity given as 10.0, 16 hours)
CCCCCCCCN(CCCOc1cccc(C(=O)O)c1)c1nc2ccccc2o1 [Example 20, 3-[3-[N-(Benzoxazol-2-yl)-N-n-octyl]aminopropoxy]benzoic acid]	1.5	0.2	21.7	
O=C(O)c1ccccc1SCCN(Cc1ccccc1[N+](=O)[O-])c1nc2ccccc2o1 [Example 74, 2-[2-[N-(Benzoxazol-2-yl)-N-2-nitrobenzyl]aminoethylthio]benzoic acid]	0.7	0.3	10.2	
CCCCCCCCN(CCCCOc1ccccc1C(=O)O)c1nc2ccccc2o1 [Example 50, 2-[4-[N-(Benzoxazol-2-yl)-N-n-octyl]aminobutoxy]benzoic acid]	2.9	0.1	13.3	
CCCCCCCCN(CCCCCSc1ccccc1C(=O)O)c1nc2ccccc2o1 [Example 102, 2-[5-[N-(Benzoxazol-2-yl)-N-n-octyl]aminopentylthio]benzoic acid]	2.1	0.9	20.3	
Cc1cccc(Nc2cc(Cl)nc(SCC(=O)O)n2)c1C [WY14643, reference compound]				10.0
CCCCCCCN(CCCOc1cccc(C(=O)O)c1)c1nc2ccccc2o1 [Example 19, 3-[3-[N-(Benzoxazol-2-yl)-N-n-heptyl]aminopropoxy]benzoic acid]	1.7	0.5	15.1	
CCCCCCCN(CCCCOc1cccc(C(=O)O)c1)c1nc2ccccc2o1 [Example 46, 3-[4-[N-(Benzoxazol-2-yl)-N-n-heptyl]aminobutoxy]benzoic acid]	1.9	0.3	16.5	
O=C(O)c1ccccc1SCCCCN(CCOc1ccccc1)c1nc2ccccc2s1 [Example 111, 2-[4-[N-(Benzothiazol-2-yl)-N-2-phenoxyethyl]aminobutylthio]benzoic acid]	4.6	0.3	16.0	
CCN(CCCCSc1ccccc1C(=O)O)c1nc2ccccc2s1 [Example 108, 2-[4-[N-(Benzothiazol-2-yl)-N-ethyl]aminobutylthio]benzoic acid]	1.4	0.2	16.2	
O=C(O)c1cccc(OCCCCN(CCOc2ccc(Cl)cc2)c2nc3ccccc3o2)c1 [Example 45, 3-[4-[N-(Benzoxazol-2-yl)-N-2-(4-chloropheoxyl)ethyl]aminobutoxy]benzoic acid]	3.5	0.6	12.3	
CC(C)N(CCCCCSc1ccccc1C(=O)O)c1nc2ccccc2o1 [Example 70, 2-[5-[N-(Benzoxazol-2-yl)-N-isopropyl]aminopentylthio]benzoic acid]	1.4	0.2	12.4	
Cc1c(CN(CCSc2ccccc2C(=O)O)c2nc3ccccc3o2)cccc1[N+](=O)[O-] [Example 73, 2-[2-[N-(Benzoxazol-2-yl)-N-(2-methyl-3-nitrobenzyl) ]aminoethylthio]benzoic acid]	1.1	0.2	11.2	
CCCCCCN(CCCCOc1ccc(C(=O)O)cc1)c1nc2ccccc2o1 [Example 60, 4-[4-[N-(Benzoxazol-2-yl)-N-n-hexyl]aminobutoxy]benzoic acid]	1.8	0.1	11.9	

Further lines, results first:

hPPAR; Relative activity γ (human PPARγ2)	hPPAR; Relative activity δ (human PPARδ)	hPPAR; Relative activity α (human PPARα; [1])	hPPAR; Relative activity α (human PPARα; positive compound at 10 μM, its luciferase activity given as 10.0, 16 hours)	SMILES
4.6	0.2	11.6		O=C(O)c1ccccc1SCCCCN(CCCc1ccccc1)c1nc2ccccc2o1 [Example 97, 2-[4-[N-(Benzoxazol-2-yl)-N-3-phenylpropyl]aminobutylthio]benzoic acid]
2.7	0.8	18.7		O=C(O)c1ccccc1SCCCCCN(CCCc1ccccc1)c1nc2ccccc2o1 [Example 104, 2-[5-[N-(BenzoxazoI-2-yl)-N-3-phenylpropyl]aminopentylthio]benzoic acid]
3.5	1.4	12.0		CCCCCCCCN(CCCCSc1ccccc1C(=O)O)c1nc2ccccc2o1 [Example 94, 2-[4-[N-(Benzoxazol-2-yl)-N-n-octyl]aminobutylthio]benzoic acid]
1.7	0.2	20.2		CN(CCCCCSc1ccccc1C(=O)O)c1nc2ccccc2o1 [Example 100, 2-[5-[N-(Benzoxazol-2-yl)-N-methyl]aminopentylthio]benzoic acid]
2.0	0.5	11.0		CCCCN(CCCCCSc1ccccc1C(=O)O)c1nc2ccccc2o1 [Example 71, 2-[5-[N-(Benzoxazol-2-yl)-N-n-butyl]aminopentylthio]benzoic acid]
2.1	0.2	20.8		CCCCCCCCN(CCSc1ccccc1C(=O)O)c1nc2ccccc2o1 [Example 78, 2-[2-[N-(Benzoxazol-2-yl)-N-n-octyl]aminoethylthio]benzoic acid]
2.0	0.2	12.4		CCCN(CCCCCSc1ccccc1C(=O)O)c1nc2ccccc2o1 [Example 103, 2-[5-[N-(Benzoxazol-2-yl)-N-n-propyl]aminopentylthio]benzoic acid]
2.0	0.2	18.9		CCCCCCCN(CCSc1ccccc1C(=O)O)c1nc2ccccc2o1 [Example 77, 2-[2-[N-(Benzoxazol-2-yl)-N-n-heptyl]aminoethylthio]benzoic acid]
